Measurements as given in article PMC10175918 (Communications Biology, 2023).
Where two headings read alike, the source gives them in different places.

Legend:
Assay in all cases: TGFα-shedding assay-based GPCR screening with chimeric Gα subunit proteins
Type in all cases: cell-based
348 GPCRs [1] = molecular target: T1, 348 GPCRs (Homo sapiens, UniProt P25025)
T1 sequence (P25025 1-360): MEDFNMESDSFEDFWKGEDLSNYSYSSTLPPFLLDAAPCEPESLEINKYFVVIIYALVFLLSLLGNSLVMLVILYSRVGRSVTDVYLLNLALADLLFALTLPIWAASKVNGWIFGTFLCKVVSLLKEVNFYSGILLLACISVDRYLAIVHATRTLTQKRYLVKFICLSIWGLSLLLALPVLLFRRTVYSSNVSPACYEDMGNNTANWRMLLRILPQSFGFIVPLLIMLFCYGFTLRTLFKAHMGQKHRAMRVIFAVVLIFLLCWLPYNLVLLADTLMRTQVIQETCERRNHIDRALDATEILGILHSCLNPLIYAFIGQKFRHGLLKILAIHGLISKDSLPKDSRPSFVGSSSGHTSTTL

348 GPCRs [2] = molecular target: T2, 348 GPCRs (Homo sapiens, UniProt P29275); conditions: 10µM, Favipiravir 100μM
T2 construct: expressed in transfected cells; host or cells: HEK293A
T2 sequence (P29275 1-332): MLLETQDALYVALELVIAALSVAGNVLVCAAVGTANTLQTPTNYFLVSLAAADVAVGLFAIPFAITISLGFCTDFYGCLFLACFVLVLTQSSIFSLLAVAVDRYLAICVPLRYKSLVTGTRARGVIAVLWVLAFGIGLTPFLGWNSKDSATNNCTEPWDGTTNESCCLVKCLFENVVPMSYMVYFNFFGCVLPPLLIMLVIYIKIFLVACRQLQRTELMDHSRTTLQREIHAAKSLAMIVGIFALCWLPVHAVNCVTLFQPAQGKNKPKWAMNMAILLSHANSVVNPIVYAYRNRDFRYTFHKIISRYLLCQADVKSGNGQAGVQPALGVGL

348 GPCRs [3] = molecular target: T3, 348 GPCRs (Homo sapiens, UniProt P32238); conditions: 10µM, Favipiravir 100μM
T3 sequence (P32238 1-428): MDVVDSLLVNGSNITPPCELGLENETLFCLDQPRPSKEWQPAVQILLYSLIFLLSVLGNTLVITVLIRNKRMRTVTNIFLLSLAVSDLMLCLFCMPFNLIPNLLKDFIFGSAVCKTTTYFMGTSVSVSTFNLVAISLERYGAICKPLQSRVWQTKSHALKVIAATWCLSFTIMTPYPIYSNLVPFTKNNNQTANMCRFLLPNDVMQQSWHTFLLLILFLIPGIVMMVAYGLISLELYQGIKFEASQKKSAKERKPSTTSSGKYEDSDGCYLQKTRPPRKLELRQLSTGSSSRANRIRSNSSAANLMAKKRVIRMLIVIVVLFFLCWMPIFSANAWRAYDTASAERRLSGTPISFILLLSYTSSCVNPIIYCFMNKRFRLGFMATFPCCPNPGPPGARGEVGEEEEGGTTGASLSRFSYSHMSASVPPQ

348 GPCRs [4] = molecular target: 348 GPCRs (Homo sapiens, UniProt P35462); conditions: 10µM, Favipiravir 100μM
Chain of 348 GPCRs (Homo sapiens, UniProt P35462) (P35462 whole entry): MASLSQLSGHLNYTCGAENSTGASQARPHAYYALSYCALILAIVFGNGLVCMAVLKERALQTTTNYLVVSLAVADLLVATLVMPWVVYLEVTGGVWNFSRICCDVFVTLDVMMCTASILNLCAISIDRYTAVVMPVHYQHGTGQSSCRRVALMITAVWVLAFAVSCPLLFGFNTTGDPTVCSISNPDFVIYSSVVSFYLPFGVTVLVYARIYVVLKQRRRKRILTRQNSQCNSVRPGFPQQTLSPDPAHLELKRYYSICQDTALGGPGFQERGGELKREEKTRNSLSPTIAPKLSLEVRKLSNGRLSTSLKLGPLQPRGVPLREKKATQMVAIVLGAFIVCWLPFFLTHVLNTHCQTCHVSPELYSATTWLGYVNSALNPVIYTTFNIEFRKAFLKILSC

348 GPCRs [5] = molecular target: T4, 348 GPCRs (Homo sapiens, UniProt P41587)
T4 construct: expressed in transfected cells; host or cells: HEK293A
T4 sequence (P41587 24-438): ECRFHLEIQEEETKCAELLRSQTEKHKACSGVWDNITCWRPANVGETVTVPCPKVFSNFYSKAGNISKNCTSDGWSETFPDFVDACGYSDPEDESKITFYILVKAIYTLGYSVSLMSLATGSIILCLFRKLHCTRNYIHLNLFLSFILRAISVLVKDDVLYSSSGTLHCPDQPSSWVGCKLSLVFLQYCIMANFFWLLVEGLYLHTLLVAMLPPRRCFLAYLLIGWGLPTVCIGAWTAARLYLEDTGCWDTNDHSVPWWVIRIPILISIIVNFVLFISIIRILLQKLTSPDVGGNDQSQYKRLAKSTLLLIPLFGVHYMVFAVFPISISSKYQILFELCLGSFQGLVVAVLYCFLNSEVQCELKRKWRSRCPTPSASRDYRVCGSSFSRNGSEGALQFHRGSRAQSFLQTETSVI

348 GPCRs [6] = molecular target: T5, 348 GPCRs (Homo sapiens, UniProt P41597); conditions: 10µM, Favipiravir 100μM
T5 construct: expressed in transfected cells; host or cells: HEK293A
T5 sequence (P41597 whole entry): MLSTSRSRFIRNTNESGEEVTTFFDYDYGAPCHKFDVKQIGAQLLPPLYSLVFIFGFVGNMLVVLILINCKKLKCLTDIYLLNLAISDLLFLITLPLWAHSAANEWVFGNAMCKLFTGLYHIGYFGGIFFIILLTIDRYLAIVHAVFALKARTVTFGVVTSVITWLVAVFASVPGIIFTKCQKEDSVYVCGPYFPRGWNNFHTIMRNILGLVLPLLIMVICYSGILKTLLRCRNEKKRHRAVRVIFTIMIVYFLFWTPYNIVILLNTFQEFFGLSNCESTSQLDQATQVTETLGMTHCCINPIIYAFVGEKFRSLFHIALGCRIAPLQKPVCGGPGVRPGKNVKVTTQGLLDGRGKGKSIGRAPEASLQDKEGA

348 GPCRs [7] = molecular target: T6, 348 GPCRs (Homo sapiens, UniProt P47211); conditions: 10µM, Favipiravir 100μM
T6 sequence (P47211 1-349): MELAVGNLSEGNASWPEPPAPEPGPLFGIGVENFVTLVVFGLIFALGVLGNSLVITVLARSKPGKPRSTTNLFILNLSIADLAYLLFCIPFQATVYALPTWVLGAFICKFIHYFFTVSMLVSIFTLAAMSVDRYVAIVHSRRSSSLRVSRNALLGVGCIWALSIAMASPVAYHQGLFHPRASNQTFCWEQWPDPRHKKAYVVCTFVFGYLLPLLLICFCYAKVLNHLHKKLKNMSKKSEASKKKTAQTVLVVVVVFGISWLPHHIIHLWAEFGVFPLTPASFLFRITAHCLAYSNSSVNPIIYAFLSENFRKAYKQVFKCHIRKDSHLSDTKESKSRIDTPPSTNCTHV

348 GPCRs [8] = molecular target: T7, 348 GPCRs (Homo sapiens, UniProt Q14831); conditions: 10µM, Favipiravir 100μM
T7 construct: expressed in transfected cells; host or cells: HEK293A
T7 sequence (Q14831 35-915): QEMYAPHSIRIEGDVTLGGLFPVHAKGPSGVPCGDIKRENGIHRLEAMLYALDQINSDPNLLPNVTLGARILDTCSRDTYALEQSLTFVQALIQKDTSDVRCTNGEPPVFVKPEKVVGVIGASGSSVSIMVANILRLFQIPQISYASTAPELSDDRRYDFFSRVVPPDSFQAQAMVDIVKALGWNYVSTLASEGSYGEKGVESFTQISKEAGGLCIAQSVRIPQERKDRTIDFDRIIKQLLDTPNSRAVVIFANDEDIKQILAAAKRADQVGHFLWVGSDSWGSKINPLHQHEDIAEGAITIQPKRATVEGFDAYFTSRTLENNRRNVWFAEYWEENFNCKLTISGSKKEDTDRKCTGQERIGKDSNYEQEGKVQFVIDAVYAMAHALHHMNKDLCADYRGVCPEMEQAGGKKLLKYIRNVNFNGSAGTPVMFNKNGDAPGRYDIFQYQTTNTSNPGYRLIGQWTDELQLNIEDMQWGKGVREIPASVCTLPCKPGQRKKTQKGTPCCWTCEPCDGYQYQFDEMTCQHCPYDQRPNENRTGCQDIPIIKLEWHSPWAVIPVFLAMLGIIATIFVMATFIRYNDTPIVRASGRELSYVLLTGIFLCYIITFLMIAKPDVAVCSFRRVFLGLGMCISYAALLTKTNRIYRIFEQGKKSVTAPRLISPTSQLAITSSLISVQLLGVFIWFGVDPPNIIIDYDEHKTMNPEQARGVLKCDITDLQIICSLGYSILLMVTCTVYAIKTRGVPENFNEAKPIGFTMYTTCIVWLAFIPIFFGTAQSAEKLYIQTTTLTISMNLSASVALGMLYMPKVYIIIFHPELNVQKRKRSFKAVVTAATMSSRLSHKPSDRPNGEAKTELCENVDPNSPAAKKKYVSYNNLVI

348 GPCRs [9] = molecular target: T8, 348 GPCRs (Homo sapiens, UniProt Q9NYM4); conditions: 10µM, Favipiravir 100μM
T8 construct: expressed in transfected cells; host or cells: HEK293A
T8 sequence (Q9NYM4 17-423): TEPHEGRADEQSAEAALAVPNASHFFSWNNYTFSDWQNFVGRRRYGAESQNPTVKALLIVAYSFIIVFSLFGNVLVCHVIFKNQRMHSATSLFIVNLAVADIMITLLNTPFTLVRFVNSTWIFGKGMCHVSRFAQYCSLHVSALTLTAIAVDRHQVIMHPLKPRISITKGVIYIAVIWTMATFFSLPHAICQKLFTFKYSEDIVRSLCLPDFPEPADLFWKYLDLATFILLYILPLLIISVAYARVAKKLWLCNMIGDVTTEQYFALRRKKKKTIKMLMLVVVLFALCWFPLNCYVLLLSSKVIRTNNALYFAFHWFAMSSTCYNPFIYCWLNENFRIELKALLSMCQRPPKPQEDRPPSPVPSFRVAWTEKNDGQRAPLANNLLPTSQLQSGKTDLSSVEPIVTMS

[10] = GPCR CXCR2 (C-X-C motif chemokine receptor 2), read-out: % GPCR activation compared to TPA
[11] = ADORA2B (adenosine A2b receptor), read-out: % GPCR activation compared to TPA
[12] = CCKAR (cholecystokinin A receptor), read-out: % GPCR activation compared to TPA
[13] = D3 (dopamine receptor D3), read-out: % GPCR activation compared to TPA
[14] = GPCR VIPR2 (vasoactive intestinal peptide receptor 2), read-out: % GPCR activation compared to TPA
[15] = CCR2 (C-C motif chemokine receptor 2), read-out: % GPCR activation compared to TPA
[16] = GALR1 (galanin receptor 1), read-out: % GPCR activation compared to TPA
[17] = GRM7 (glutamate receptor, metabotropic 7), read-out: % GPCR activation compared to TPA
[18] = GPR83 (G Protein-Coupled Receptor 83), read-out: % GPCR activation compared to TPA
[19] = read-out: % GPCR activation compared to TPA, GPCR CXCR2 (C-X-C motif chemokine receptor 2)
[20] = read-out: % GPCR activation compared to TPA, ADORA2B (adenosine A2b receptor)
[21] = read-out: % GPCR activation compared to TPA, CCKAR (cholecystokinin A receptor)
[22] = read-out: % GPCR activation compared to TPA, D3 (dopamine receptor D3)
[23] = read-out: % GPCR activation compared to TPA, GPCR VIPR2 (vasoactive intestinal peptide receptor 2)
[24] = read-out: % GPCR activation compared to TPA, CCR2 (C-C motif chemokine receptor 2)
[25] = read-out: % GPCR activation compared to TPA, GALR1 (galanin receptor 1)
[26] = read-out: % GPCR activation compared to TPA, GRM7 (glutamate receptor, metabotropic 7)
[27] = read-out: % GPCR activation compared to TPA, GPR83 (G Protein-Coupled Receptor 83)

| SMILES | activation at 10 µM (348 GPCRs [1]; [10]) [%] | activation at 10 µM (348 GPCRs [2]; [11]) [%] | activation at 100 µM (348 GPCRs [3]; [12]) [%] | activation at 100 µM (348 GPCRs [4]; [13]) [%] | activation at 10 µM (348 GPCRs [5]; [14]) [%] | activation at 100 µM (348 GPCRs [6]; [15]) [%] | activation at 100 µM (348 GPCRs [7]; [16]) [%] | activation at 10 µM (348 GPCRs [8]; [17]) [%] | activation at 100 µM (348 GPCRs [9]; [18]) [%] | activation at 10 µM (348 GPCRs [1]; [19]) [%] | activation at 10 µM (348 GPCRs [2]; [20]) [%] | activation at 100 µM (348 GPCRs [3]; [21]) [%] | activation at 100 µM (348 GPCRs [4]; [22]) [%] | activation at 10 µM (348 GPCRs [5]; [23]) [%] | activation at 100 µM (348 GPCRs [6]; [24]) [%] | activation at 100 µM (348 GPCRs [7]; [25]) [%] | activation at 10 µM (348 GPCRs [8]; [26]) [%] | activation at 100 µM (348 GPCRs [9]; [27]) [%] | activation at 100 µM (348 GPCRs [1]; GPCR CXCR2 (C-X-C motif chemokine receptor 2), 100μM, read-out: % GPCR activation compared to TPA) [%] | activation at 100 µM (348 GPCRs [5]; GPCR VIPR2 (vasoactive intestinal peptide receptor 2), 100μM, read-out: % GPCR activation compared to TPA) [%] |
| --- | --- | --- | --- | --- | --- | --- | --- | --- | --- | --- | --- | --- | --- | --- | --- | --- | --- | --- | --- | --- |
| N#C[C@@]1(c2ccc3c(N)ncnn23)O[C@H](CO)[C@@H](O)[C@H]1O [GS441524] | 0.398 | 1.2 | -2.84 | 4.08 | -0.864 | 2.78 | 0.832 | 1.06 | -1.11 |  |  |  |  |  |  |  |  |  |  |  |
| CC(C)OC(=O)[C@H](C)N[P@](=O)(OC[C@H]1O[C@@H](n2ccc(=O)[nH]c2=O)[C@](C)(F)[C@@H]1O)Oc1ccccc1 [sofosbuvir] |  |  |  |  |  |  |  |  |  | -1.43 | 0.00372 | -1.34 | -1.16 | 1.3 | -0.876 | -0.0144 | 10.4 | -0.627 |  |  |
| CCC(CC)COC(=O)[C@H](C)N[P@](=O)(OC[C@H]1O[C@@](C#N)(c2ccc3c(N)ncnn23)[C@H](O)[C@@H]1O)Oc1ccccc1 [remdesivir] |  |  |  |  |  |  |  |  |  | 2.41 | 1.79 | 1.15 | 7.67 | 0.502 | 5.23 | 6.53 | -0.738 | -2.36 |  |  |
| CC(C)C(=O)OC[C@H]1O[C@@H](n2ccc(NO)nc2=O)[C@H](O)[C@@H]1O [molnupiravir] | 0.926 | -1.6 | 2.71 | 0.0207 | -0.156 | 0.105 | 1.08 | -1.87 | -2.02 |  |  |  |  |  |  |  |  |  |  |  |
| NC(=O)c1nc(F)cnc1O [favipiravir, 6-fluoro-3-hydroxy-2-pyrazinecarboxamide] |  | 1.67 | -0.523 | 7.52 |  | 5.66 | 7.08 | -0.143 | -2.15 |  |  |  |  |  |  |  |  |  | -0.272 | -0.699 |
